Experimental data taken from patent US12594276B2, “Inhibitors of human immunodeficiency virus replication” (ViiV Healthcare UK (No.5) Limited, priority 2024, dated 2026).
Like-named read-outs stand apart in the source and are kept apart here.

What was measured:
Type in all cases: cell-based
uninfected MT2 cells = experiment: Compound cytotoxicity, XTT-based colorimetric assay; conditions: uninfected MT2 cells, day 4, XTT
Outline: (§1)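 Uninfected MT2 cells were treated with compound under the same protocol as the antiviral assay. Viability was read on day 4 with an XTT colorimetric assay, from which CC50 values were derived.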

[1] = test system: recombinant NL4-3 virus (nef section replaced with Renilla luciferase gene) in MT-2 cells; experiment: HIV cell culture assay (antiviral activity, luciferase readout)
Outline: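 MT-2 cells were infected for 4-5 days with reporter virus made by transfecting the recombinant NL4-3 proviral clone into 293T cells, in the presence of serial compound dilutions. Luciferase activity was read with a live-cell substrate. EC50 came from the exponential median effect equation, (Fa)=1/[1+(ED50/drug conc.)m].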

[2] = Compound cytotoxicity, XTT-based colorimetric assay; conditions: human
Outline: as §1

[3] = uninfected MT2 cells, day 4, XTT, read-out: CC50
[4] = Renilla, NL43, MT-2 cells infected for 4-5 days with recombinant NL4-3 Renilla luciferase virus

Compound | CC50 (uninfected MT2 cells) | EC50 ([1]; MT-2 cells infected for 4-5 days with recombinant NL4-3 Renilla luciferase virus) | CC50 at 4 days [2, 3] | EC50 [1, 4] | CC50 at 4 days [2]
Cc1cc(C2(F)CCC(F)(F)CC2)nc2nc([C@H](Cc3cc(F)cc(F)c3)NC(=O)Cn3nc(C(F)F)c4c3C(F)(F)[C@@H]3C[C@H]43)n(-c3ccc(Cl)c4c(NS(C)(=O)=O)nn(C[C@@H](C)N5C[C@H](F)C[C@H](F)C5)c34)c(=O)c12 (atropisomer, axis not shown; (P)) [Example 703, N-[(1S)-1-[(3P)-3-{4-chloro-1-[(2S)-2-[(3R,5S)-3,5-difluoropiperidin-1-yl]propyl]-3-methanesulfonamido-1H-indazol-7-yl}-5-methyl-4-oxo-7-(1,4,4-trifluorocyclohexyl)-3H,4H-pyrido[2,3-d]pyrimidin-2-yl]-2-(3,5-difluorophenyl)ethyl]-2-[(2S,4R)-9-(difluoromethyl)-5,5-difluoro-7,8-diazatricyclo[4.3.0.0^2,^4]nona-1(6),8-dien-7-yl]acetamide] | > 20 nM | 0.017 nM |  |  | 
Cc1cc(C2CCC(F)(F)CC2)nc2nc([C@H](Cc3cc(F)cc(F)c3)NC(=O)Cn3nc(C(F)F)c4c3C(F)(F)[C@@H]3C[C@H]43)n(-c3ccc(Cl)c4c(NS(C)(=O)=O)nn(CCN5CC6C(C5)C6(F)F)c34)c(=O)c12 (stereo partly drawn) [Example 312, N-[(1S)-1-[(3P)-3-[4-chloro-1-(2-{6,6-difluoro-3-azabicyclo[3.1.0]hexan-3-yl}ethyl)-3-methanesulfonamido-1H-indazol-7-yl]-7-(4,4-difluorocyclohexyl)-5-methyl-4-oxo-3H,4H-pyrido[2,3-d]pyrimidin-2-yl]-2-(3,5-difluorophenyl)ethyl]-2-[(2S,4R)-9-(difluoromethyl)-5,5-difluoro-7,8-diazatricyclo[4.3.0.0^2,^4]nona-1(6),8-dien-7-yl]acetamide] |  |  | > 50 nM | 0.021 nM | 
COCCCn1nc(NS(C)(=O)=O)c2c(Cl)ccc(-n3c([C@H](Cc4cc(F)cc(F)c4)NC(=O)Cn4nc(C(F)F)c5c4C(F)(F)[C@@H]4C[C@H]54)nc4nc(C5CCC(F)(F)CC5)cc(NCCC5CCCCO5)c4c3=O)c21 (stereo partly drawn) [Example 563, N-[(1S)-1-[(3P)-3-[4-chloro-3-methanesulfonamido-1-(3-methoxypropyl)-1H-indazol-7-yl]-7-(4,4-difluorocyclohexyl)-5-{[2-(oxan-2-yl)ethyl]amino}-4-oxo-3H,4H-pyrido[2,3-d]pyrimidin-2-yl]-2-(3,5-difluorophenyl)ethyl]-2-[(2S,4R)-9-(difluoromethyl)-5,5-difluoro-7,8-diazatricyclo[4.3.0.0^2,^4]nona-1(6),8-dien-7-yl]acetamide] |  |  | > 20 nM | 0.019 nM | 
COCCCn1nc(NS(C)(=O)=O)c2c(Cl)ccc(-n3c([C@H](Cc4cc(F)cc(F)c4)NC(=O)Cn4nc(C(F)F)c5c4C(F)(F)[C@@H]4C[C@H]54)nc4nc(C5CCC(F)(F)CC5)cc(NCCC5CCO5)c4c3=O)c21 (stereo partly drawn) [Example 564, N-[(1S)-1-[(3P)-3-[4-chloro-3-methanesulfonamido-1-(3-methoxypropyl)-1H-indazol-7-yl]-7-(4,4-difluorocyclohexyl)-5-{[2-(oxetan-2-yl)ethyl]amino}-4-oxo-3H,4H-pyrido[2,3-d]pyrimidin-2-yl]-2-(3,5-difluorophenyl)ethyl]-2-[(2S,4R)-9-(difluoromethyl)-5,5-difluoro-7,8-diazatricyclo[4.3.0.0^2,^4]nona-1(6),8-dien-7-yl]acetamide] |  |  | > 20 nM | 0.012 nM | 
Cc1cc(C2(F)CCC(F)(F)CC2)nc2nc([C@H](Cc3cc(F)cc(F)c3)NC(=O)Cn3nc(C(F)F)c4c3C(F)(F)[C@@H]3C[C@H]43)n(-c3ccc(Cl)c4c(NS(C)(=O)=O)nn(CCN5CC6CC(C5)O6)c34)c(=O)c12 [Example 588, N-[(1S)-1-[(3P)-3-[4-chloro-3-methanesulfonamido-1-(2-{6-oxa-3-azabicyclo[3.1.1]heptan-3-yl}ethyl)-1H-indazol-7-yl]-5-methyl-4-oxo-7-(1,4,4-trifluorocyclohexyl)-3H,4H-pyrido[2,3-d]pyrimidin-2-yl]-2-(3,5-difluorophenyl)ethyl]-2-[(2S,4R)-9-(difluoromethyl)-5,5-difluoro-7,8-diazatricyclo[4.3.0.0^2,^4]nona-1(6),8-dien-7-yl]acetamide] |  |  |  | 0.008 nM | > 20 nM
Cc1cc(C2(F)CCC(F)(F)CC2)nc2nc([C@H](Cc3cc(F)cc(F)c3)NC(=O)Cn3nc(C4CC4)c4c3C[C@@H]3C[C@H]43)n(-c3ccc(Cl)c4c(NS(C)(=O)=O)nn(CCN5CC6CC(C5)O6)c34)c(=O)c12 [Example 591, N-[(1S)-1-[(3P)-3-[4-chloro-3-methanesulfonamido-1-(2-{6-oxa-3-azabicyclo[3.1.1]heptan-3-yl}ethyl)-1H-indazol-7-yl]-5-methyl-4-oxo-7-(1,4,4-trifluorocyclohexyl)-3H,4H-pyrido[2,3-d]pyrimidin-2-yl]-2-(3,5-difluorophenyl)ethyl]-2-[(2S,4S)-9-cyclopropyl-7,8-diazatricyclo[4.3.0.0^2,^4]nona-1(6),8-dien-7-yl]acetamide] |  |  |  | 0.006 nM | > 20 nM
